According to publication PMC9071858, “Comparative Pharmacokinetics of Seven Major Compounds in Normal and Atherosclerosis Mice after Oral Administration of Simiao Yong'an Decoction” (Evidence-based Complementary and Alternative Medicine : eCAM, 2022):

Assays:
[1] = Pharmacokinetic study in normal control (NC) mice after oral administration of SMYAD; format: in vivo, mouse; details: for AUC(0-inf) / AUC(0-t) / Cmax / Tmax / half-life: male, C57BL/6J
Procedure: (§1) Male C57BL/6J mice and ApoE^−/− mice on a C57BL/6 background (7 weeks old, 18–22 g) were purchased from Beijing Vital River Laboratory Animal Technology Co., Ltd. (Beijing, China, Certificate No.: SCXK (Jing) 2016-0006). All the mice were kept in an SPF animal house (Dongzhimen Hospital Affiliated to Beijing University of Chinese Medicine, Certificate No.: SYXK (Jing) 2015-0001) with food and water freely available, 12 h light/dark, and environmental conditions of 22°C–24°C, 50% relative humidity. All protocols of animal experiments were performed in accordance with the National Guidelines for Laboratory Animal Welfare and were approved by the Animal Ethics Committee of Beijing University of Chinese Medicine (NO. BUCM-4-2015071701-3001). High-fat feeding (containing 15% fat and 0.25% cholesterol) was provided by Beijing HFK bioscience CO., LTD. (Beijing, China, Certificate No.: SCXK (Jing) 2014-0018).
(§2) After successful induction of AS model, SMYAD was administered to NC and AS mice by intragastric gavage at the crude drug dose of 35 g/kg/d for seven days. Blood samples were collected from each mouse in heparinized tubes via the postorbital venous plexus veins at 0, 0.25, 0.5, 1, 2, 4, 6, 8, 10, 12, 18, and 24 h after seven days of drug administration. Then blood samples were immediately centrifuged at 3500 rpm at 4°C for 10 min and the plasma was stored at −80°C until use.
(§3) Each plasma sample (100 μL) was mixed with a threefold volume of methanol and 25 μL IS in a 1.5 mL EP tube. Then the mixture was vortexed for 100 seconds and centrifuged at 12,000 rpm for 10 min at 4°C. The supernatant was transferred to another EP tube and evaporated to dryness under a nitrogen vacuum. The residue was reconstituted with 100 μL of 50% methanol and centrifuged at 15,000 rpm for 15 min. Then the supernatant was transferred to sample vials for the LC-MS analysis.
(§4) A Vanquish UHPLC™ system (Thermo Fisher Scientific Inc., USA) was used for the analysis. Samples were separated on an Atlantis T3 column (4.6 mm × 150 mm, 3 μm; Waters, USA). The column temperature was 40°C. The mobile phase, at 0.4 mL/min, consisted of water containing 0.1% formic acid (v/v, A) and methanol (B). The quantitative analysis gradient program was as follows: 0-1 min, 0 B; 1–6 min, 0–100% B; 6–12 min, 100% B; 12–12.1 min, 100%-0 B; 12.1–15 min, 0 B. The injection volume was 5 μL.
(§5) The mass spectrometer Q Exactive HF-X (Thermo Fisher Scientific Inc., USA) system was connected to the UHPLC system via heated electrospray ionization (HESI) and controlled by Xcalibur 4.2 software (Thermo Fisher) that was used for data collection and analysis. The mass spectrometer was operated in a negative ionization mode. The MS parameters were set as follows: probe heater temperature, 350°C; capillary temperature: 320°C; sheath gas (N2) flow rate: 30 arbs; auxiliary gas (N2) flow rate: 10 arbs; spray voltage: 3.2 kV (negative); S-Lens RF level: 55 V; scan mode: full MS (resolution 12000); scan range: m/z 150–1500. The most abundant ions in the spectra were selected for sensitive quantitation ([M-H]^−of chlorogenic acid, angoroside C, liquiritin, isoliquiritigenin, and IS, [M + COOH]^− of harpagide, swertiamarin, and sweroside).
The pharmacokinetic parameters, including maximum plasma concentration (Cmax), time corresponding to Cmax (Tmax), terminal elimination half-life (T1/2), area under plasma concentration-time curve (AUC0–t) and area under the plasma concentration-time curve from 0 to infinity time (AUC0–∞), apparent volume of distribution (Vz/F) and clearance (CLz/F), were calculated using the noncompartment model in DAS 2.0 software package (Shanghai, China). GraphPad prism 6.02 (GraphPad Software, USA) was used in the statistical analysis. All values are expressed as mean ± standard error. For the pharmacokinetic parameter values of the NC and AS groups, Student's t-test was employed for data comparisons. P values <0.05 were considered statistically significant.

[2] = Pharmacokinetic study in atherosclerosis (AS) model ApoE−/− mice after oral administration of SMYAD; format: in vivo, mouse
Procedure: as §1
The AS model was established by a high-fat diet and perivascular carotid collar placement (PCCP) surgery in the ApoE^−/− mice. After a 7-day adaptive feeding, the mice were given a high-fat diet for 2 weeks; before anesthesia, all ApoE^−/− mice were fasted for 12 hours. During the surgery, the right common carotid artery was exposed, and a silicone cannula (length: 2.5 mm, inner diameter: 0.3 mm) was fixed around the carotid artery (external diameter: about 0.5 mm). Penicillin was injected intraperitoneally for 3 days after surgery to prevent infection. High-fat diet continued for 8 weeks after surgery to establish AS model. Biochemical assays and hematoxylin and eosin (HE) staining were used to evaluate whether AS model was successfully established.
as §2, §3, §4
as §5, with “sweroside). […]” for “sweroside).”

[3] = mouse, in vivo, po, 35 g/kg/day
[4] = male, ApoE−/− on a C57BL/6 background, mouse, in vivo, po, 35 g/kg/day
[5] = NC mice, plasma, SMYAD intragastric 35 g/kg/d for seven days, mean ± SD, n = 5
[6] = mouse, po, 35 g/kg/day, NC mice, plasma, SMYAD intragastric 35 g/kg/d for seven days, mean ± SD, n = 5, read-out: AUC0–t
[7] = mouse, po, 35 g/kg/day, NC mice, plasma, SMYAD intragastric 35 g/kg/d for seven days, mean ± SD, n = 5, read-out: AUC0–∞
[8] = mouse, po, 35 g/kg/day, NC mice, plasma, SMYAD intragastric 35 g/kg/d for seven days, mean ± SD, n = 5, read-out: C max
[9] = mouse, po, 35 g/kg/day, NC mice, plasma, SMYAD intragastric 35 g/kg/d for seven days, mean ± SD, n = 5, read-out: t 1/2 (converted)
[10] = mouse, po, 35 g/kg/day, NC mice, plasma, SMYAD intragastric 35 g/kg/d for seven days, mean ± SD, n = 5, read-out: t max
[11] = AS mice, plasma, SMYAD intragastric 35 g/kg/d for seven days, mean ± SD, n = 5
[12] = male, ApoE−/− on a C57BL/6 background, mouse, po, 35 g/kg/day, AS mice, plasma, SMYAD intragastric 35 g/kg/d for seven days, mean ± SD, n = 5, read-out: AUC0–t
[13] = male, ApoE−/− on a C57BL/6 background, mouse, po, 35 g/kg/day, AS mice, plasma, SMYAD intragastric 35 g/kg/d for seven days, mean ± SD, n = 5, read-out: AUC0–∞
[14] = male, ApoE−/− on a C57BL/6 background, mouse, po, 35 g/kg/day, AS mice, plasma, SMYAD intragastric 35 g/kg/d for seven days, mean ± SD, n = 5, read-out: C max
[15] = male, ApoE−/− on a C57BL/6 background, mouse, po, 35 g/kg/day, AS mice, plasma, SMYAD intragastric 35 g/kg/d for seven days, mean ± SD, n = 5, read-out: t 1/2 (converted)
[16] = male, ApoE−/− on a C57BL/6 background, mouse, po, 35 g/kg/day, AS mice, plasma, SMYAD intragastric 35 g/kg/d for seven days, mean ± SD, n = 5, read-out: t max

## O=C1C[C@@H](c2ccc(O[C@@H]3O[C@H](CO)[C@@H](O)[C@H](O)[C@H]3O)cc2)Oc2cc(O)ccc21 [Liquiritin, liquiritin]
[1]; [3]
  AUC(0-inf): 760 ± 334 ng·h/mL
  AUC(0-t): 607 ± 229 ng·h/mL
  Cmax: 132 ± 57.1 ng/mL
  Tmax: 0.75 ± 0.63 h
  half-life: 17 ± 3.43 h
  CLz/F: 979000 ± 515700 µL/min/mg
  Vz/F: 565.81 ± 116.60 L/mg
[2]; male, ApoE−/− on a C57BL/6 background, mouse, in vivo
  CLz/F: 67.62 ± 33.62 L/h/mg
[2]; [4]
  AUC(0-inf): 482 ± 137 ng·h/mL
  AUC(0-t): 408 ± 115 ng·h/mL
  Cmax: 67.6 ± 33.6 ng/mL
  Tmax: 0.75 ± 0.69 h
  half-life: 13.5 ± 3.57 h
[2]; [3]
  Vz/F: 887.57 ± 397.82 L/mg

## O=C(/C=C/c1ccc(O)cc1)c1ccc(O)cc1O [Isoliquiritigenin, isoliquiritigenin]
[1]; [5]
  CLz/F: 558500 ± 73500 µL/min/mg
  Vz/F: 198.37 ± 58.53 L/mg
[1]; [6]
  AUC(0-t): 1040 ± 144 ng·h/mL
[1]; [7]
  AUC(0-inf): 1060 ± 144 ng·h/mL
[1]; [8]
  Cmax: 175 ± 49 ng/mL
[1]; [9]
  half-life: 6.65 ± 1.31 h
[1]; [10]
  Tmax: 1.9 ± 2.13 h
[2]; [11]
  CLz/F: 62.16 ± 23.35^∗ L/h/mg
  Vz/F: 658.87 ± 555.51 L/mg
[2]; AS mice, plasma, SMYAD intragastric 35 g/kg/d for seven days, mean ± SD, n = 5, listed as isoliquiritigenin
  CLz/F: 62.16 ± 23.35 L/h/mg
[2]; [12]
  AUC(0-t): 502 ± 166 ng·h/mL
[2]; [13]
  AUC(0-inf): 654 ± 251 ng·h/mL
[2]; [14]
  Cmax: 135 ± 102 ng/mL
[2]; [15]
  half-life: 6.01 ± 2.32 h
[2]; [16]
  Tmax: 0.95 ± 0.6 h

## O=C(/C=C/c1ccc(O)c(O)c1)O[C@@H]1C[C@](O)(C(=O)O)C[C@@H](O)[C@H]1O [Chlorogenic acid, chlorogenic acid]
[1]; [5]
  CLz/F: 506200 ± 126000 µL/min/mg
  Vz/F: 247.01 ± 150.71 L/mg
[1]; [6]
  AUC(0-t): 1110 ± 419 ng·h/mL
[1]; [7]
  AUC(0-inf): 1260 ± 425 ng·h/mL
[1]; [8]
  Cmax: 267 ± 72.4 ng/mL
[1]; [9]
  half-life: 4.51 ± 1.1 h
[1]; [10]
  Tmax: 1.13 ± 0.88 h
[2]; [11]
  CLz/F: 13.49 ± 1.81^∗∗ L/h/mg
  Vz/F: 302.49 ± 211.89 L/mg
[2]; AS mice, plasma, SMYAD intragastric 35 g/kg/d for seven days, mean ± SD, n = 5, listed as chlorogenic acid
  CLz/F: 13.49 ± 1.81 L/h/mg
[2]; [12]
  AUC(0-t): 1560 ± 476 ng·h/mL
[2]; [13]
  AUC(0-inf): 2640 ± 323 ng·h/mL
[2]; [14]
  Cmax: 1130 ± 970 ng/mL
[2]; [15]
  half-life: 21.6 ± 9.16 h
[2]; [16]
  Tmax: 0.25 h

## C=C[C@H]1[C@H](O[C@@H]2O[C@H](CO)[C@@H](O)[C@H](O)[C@H]2O)OC=C2C(=O)OCC[C@H]21 [Sweroside, sweroside]
[1]; [3]
  AUC(0-inf): 7080 ± 390 ng·h/mL
  AUC(0-t): 6980 ± 382 ng·h/mL
  Cmax: 1790 ± 369 ng/mL
  Tmax: 0.4 ± 0.3 h
  half-life: 3.81 ± 0.56 h
  CLz/F: 82700 ± 4670 µL/min/mg
  Vz/F: 16.99 ± 3.78 L/mg
[2]; [4]
  AUC(0-inf): 8930 ± 2120 ng·h/mL
  AUC(0-t): 7500 ± 1800 ng·h/mL
  Cmax: 1590 ± 497 ng/mL
  Tmax: 0.9 ± 0.64 h
  half-life: 6.56 ± 2.75 h
[2]; [3]
  CLz/F: 4.29 ± 1.55 L/h/mg
  Vz/F: 29.99 ± 14.26 L/mg
